In paper PMC5843698, “Use of QSPR Modeling to Characterize In Vitro Binding of Drugs to a Gut-Restricted Polymer” (Pharmaceutical Research, 2018):
Counter-ions that a name gives are not always drawn. Like-named read-outs stand apart in the source and are kept apart here.

Assays:
[1] = logD determination (liquid-liquid distribution chromatography, octanol-coated column)
Protocol: The logD of the sample was determined at pH 7.4 by liquid-liquid distribution chromatography. Compounds were eluted from an octanol-coated column with an octanol-saturated mobile phase adjusted to pH 7.4. Compound retention time was converted to logD value by comparison to the retention time of a set of standard compounds with well-characterized logD octanol values.

[2] = pKa determination by titration in aqueous solution (UV or pH monitored)
Protocol: Test drug pKas were determined experimentally by titration in aqueous solution. Ionization state was monitored by UV or pH. Reported values are the average of three independent determinations. […] Drug concentration was in the range 17–31 μM (UV) or ≥0.4 mM (pH).

[3] = logP determination by titration in octanol/water
Description: The shift of the aqueous pKas in the presence of octanol was used to determine the logP of the different species.

[4] = In vitro binding assay: free test drug recovered after 3 h incubation with and without patiromer in SGF, acetate buffer or SIF; conditions: for SGF / SIF / AB: QSPR input data; for SGF: test matrix SGF; for SIF: test matrix SIF; for AB: test matrix acetate buffer (AB); for In Vitro Binding (% Drug Recovered) SGF (pH 3): simulated gastric fluid, final pH 3.0; for In Vitro Binding (% Drug Recovered) SIF (pH 5.9): simulated intestinal fluid, final pH 5.9; for In vitro patiromer binding category: strong, weak or non-binding
Protocol: Patiromer binding to test compounds was assessed by comparing free test drug concentrations after incubation with and without patiromer. […] Test drug concentrations were based on the lowest clinically relevant dose of test drug in US prescribing information in a 1-L volume.
Three test buffers were used: simulated gastric fluid without added pepsin (SGF; initial pH 1.2), acetate buffer (AB; initial pH 4.5), and simulated intestinal fluid without added pancreatin (SIF; initial pH 6.8). Tween-20 was included at 0.05% v/v as a surfactant to aid in solubilizing test drugs.
Binding studies were performed in a 10 ml volume in 16×100 mm borosilicate tubes, and incubated for 3 h at 37°C with end-over-end rotation at ~25 rpm. After incubation, patiromer was allowed to settle for 5 min; supernatants were withdrawn and passed through a 0.45 μm filter, collected by centrifugation, and transferred to chromatography vials for analysis. Control samples containing buffer and drug, but without patiromer, were subjected to the same experimental process. For 24 of the test drugs, a reversed phase high performance liquid chromatography method was used for analysis in the three test matrices. […] During method qualification, we conducted a pretest of each drug in test media alone to assure no significant loss in recovery during the incubation or filtration steps. If there was not sufficient recovery compared to theoretical concentration, the drug could not be evaluated in that medium. The recovered drug in the presence or absence of patiromer was used to calculate percent recovery of test drug, and represents the geometric mean of 12 replicates.
To measure binding, each compound was co-incubated with patiromer using the highest single clinical dose of polymer and the minimum clinical dose of test drug. […] Following co-incubation, patiromer and any bound drug were removed by centrifugation and the remaining unbound (recovered) drug was measured in the supernatant.

[5] = octanol-coated column with octanol-saturated mobile phase, pH 3
[6] = octanol-coated column with octanol-saturated mobile phase, pH 4.5
[7] = octanol-coated column with octanol-saturated mobile phase, pH 5.9
[8] = aqueous solution, pKa (A = acid), acidic group, average of three determinations
[9] = acetate buffer pH 4.5, patiromer 25.2 g/L, 3 h, 37°C, geometric mean of 12 replicates
[10] = across SGF, AB and SIF test matrices
[11] = patiromer 25.2 g/L, 3 h, 37°C, geometric mean of 12 replicates

Row | Molecule | chromatographic logD [1, 5] | chromatographic logD [1, 6] | chromatographic logD [1, 7] | logP ([3]; octanol/water) | SGF [4] | SIF [4] | AB [4] | In Vitro Binding (% Drug Recovered) Acetate Buffer (pH 4.5) [4, 9] [%] | In Vitro Binding (% Drug Recovered) SGF (pH 3) [4, 11] [%] | In Vitro Binding (% Drug Recovered) SIF (pH 5.9) [4, 11] [%] | Binding categories (level of in vitro interaction with patiromer) [4, 10] | other results
1 | CC(=O)CC(c1ccccc1)c1c(O)c2ccccc2oc1=O (racemic) [Warfarin (R/S), Warfarin] | – | – | – | – | – | – | – | – | – | – | – | chromatographic logD ([1]; pH 3): 3.25; chromatographic logD ([1]; pH 4.5): 3.12; chromatographic logD ([1]; pH 5.9): 2.25; pKa [2]: 4.94; logP [3]: 3.25
2 | Oc1ncnc2[nH]ncc12 [Allopurinol] | -0.3 | -0.3 | -0.3 | -0.3 | 85.7 | 94.2 | 90.1 | 90.1 | 85.7 | 94.2 | No binding (<30% drug bound in any test matrix) | pKa [2, 8]: 9.18
3 | CCOC(=O)C1=C(COCCN)NC(C)=C(C(=O)OC)C1c1ccccc1Cl (stereo not drawn) [Amlodipine besylate] | 1.44 | 1.44 | 1.46 | 3.39 | – | – | – | – | – | – | – | –
4 | CC1(C)S[C@@H]2[C@H](NC(=O)[C@H](N)c3ccc(O)cc3)C(=O)N2[C@H]1C(=O)O [Amoxicillin] | 1.65 | 0.46 | 0 | -0.02 | – | 99.4 | 99.2 | 99.2 | – | 99.4 | No binding (<30% drug bound in any test matrix) | pKa (A = acid) ([2]; acidic group, average of three determinations): 2.60; pKa [2, 8]: 9.59; pKa ([2]; aqueous solution, pKa (B = base), basic group, average of three determinations): 7.35
5 | COc1ccc(-n2nc(C(N)=O)c3c2C(=O)N(c2ccc(N4CCCCC4=O)cc2)CC3)cc1 [Apixaban] | < 1.4 | < 1.4 | < 1.4 | < 1.4 | 75.6 | 97.8 | 97.3 | 97.3 | 75.6 | 97.8 | No binding (<30% drug bound in any test matrix) | –
6 | CC(=O)Oc1ccccc1C(=O)O [Aspirin] | 0.78 | -0.14 | -1.5 | 0.9 | 100.7 | 99.9 | 99.8 | 99.8 | 100.7 | 99.9 | No binding (<30% drug bound in any test matrix) | –
7 | CC(C)c1c(C(=O)Nc2ccccc2)c(-c2ccccc2)c(-c2ccc(F)cc2)n1CC[C@@H](O)C[C@@H](O)CC(=O)O [Atorvastatin calcium] | – | – | – | – | 91.2 | 101.1 | 93.3 | 93.3 | 91.2 | 101.1 | No binding (<30% drug bound in any test matrix) | –
8 | NS(=O)(=O)c1cc(C(=O)O)c(NCc2ccco2)cc1Cl [Furosemide] | – | – | – | – | 67.3 | 79.1 | 94.5 | 94.5 | 67.3 | 79.1 | Weak binder (30–55% bound in one test matrix) | –
9 | Cc1cnc(C(=O)NCCc2ccc(S(=O)(=O)NC(=O)NC3CCCCC3)cc2)cn1 [Glipizide] | – | – | – | – | 72.9 | 98.5 | 96.5 | – | 72.9 | 98.5 | No binding (<30% drug bound in any test matrix) | In Vitro Binding (% Drug Recovered) Acetate Buffer (pH 4.5) ([4]; pH 4.5): 96.5%
10 | O=C([O-])[O-].[Li+].[Li+] [Lithium carbonate] | – | – | – | – | – | – | – | 88.8 | 93.3 | 56.9 | – | Binding categories (level of in vitro interaction with patiromer) [4]: Weak binder (key: No binding: <30% drug bound in any test matrix; Weak binder: 30–55% bound in one test matrix; Strong binder: >55% bound in two or three test matrices)
11 | CC(=O)S[C@@H]1CC2=CC(=O)CC[C@]2(C)[C@H]2CC[C@@]3(C)[C@@H](CC[C@@]34CCC(=O)O4)[C@H]12 [Spironolactone] | 2.53 | 2.53 | 2.53 | 2.53 | 78.7 | 96.8 | 98.6 | 98.6 | 78.7 | 96.8 | No binding (<30% drug bound in any test matrix) | –
12 | Digoxin | – | – | – | – | – | 103.4 | 109.3 | 109.3 | – | 103.4 | No binding (<30% drug bound in any test matrix) | –

More lines, main results first:

Row | chromatographic logD [1, 5] | chromatographic logD [1, 6] | chromatographic logD [1, 7] | logP ([3]; octanol/water) | SGF [4] | SIF [4] | AB [4] | In Vitro Binding (% Drug Recovered) Acetate Buffer (pH 4.5) [4, 9] [%] | In Vitro Binding (% Drug Recovered) SGF (pH 3) [4, 11] [%] | In Vitro Binding (% Drug Recovered) SIF (pH 5.9) [4, 11] [%] | Molecule | Binding categories (level of in vitro interaction with patiromer) [4, 10] | other results
13 | – | – | – | – | 88.7 | 104.4 | 95 | 95 | 88.7 | 104.4 | CC1=C(C(=O)O)N2C(=O)[C@@H](NC(=O)[C@H](N)c3ccccc3)[C@H]2SC1 [Cephalexin] | No binding (<30% drug bound in any test matrix) | In vitro patiromer binding category [4]: non-binding
14 | -4.7 | -3.2 | -1.8 | 1.91 | – | – | – | – | – | – | COCCc1ccc(OCC(O)CNC(C)C)cc1 (stereo not drawn) [Metoprolol tartrate] | – | –
15 | < -1.5 | < -1.5 | < -1.5 | < -1.5 | – | – | – | – | – | – | Cc1cc2nc3c(=O)[nH]c(=O)nc-3n(C[C@H](O)[C@H](O)[C@H](O)CO)c2cc1C [Riboflavin] | – | pKa [2, 8]: 9.87
16 | 1.43 | 1.43 | 1.43 | 1.43 | 71.9 | 95.1 | 92.9 | 92.9 | 71.9 | 95.1 | O=C(NC[C@H]1CN(c2ccc(N3CCOCC3=O)cc2)C(=O)O1)c1ccc(Cl)s1 [Rivaroxaban] | No binding (<30% drug bound in any test matrix) | –
17 | – | – | – | – | 86.4 | 98 | 101.4 | 101.4 | 86.4 | 98 | CCCCC(=O)N(Cc1ccc(-c2ccccc2-c2nnn[nH]2)cc1)[C@H](C(=O)O)C(C)C [Valsartan] | No binding (<30% drug bound in any test matrix) | In vitro patiromer binding category [4]: non-binding
